Read-outs that look alike come from different tables or passages of the source.
Key:
[1] = biological target: Beta Secretase enzyme (BACE) (Homo sapiens (Human), UniProt P56817); experiment: In vitro enzymatic BACE FRET assay; assay type: biochemical; conditions: read-out: BACE 1 FRET assay IC50
Experimental: In Vitro Enzymatic BACE FRET (Fluorescence Resonance Energy Transfer) Assay (Enzyme Assay Data in the Example Table I)
The assay buffer used in this screen is 0.05 M acetate, pH 4.2, 10% DMSO final, 100 uM genapol (which is a nonionic detergent, below its Critical Micelle Concentration). […] This assay is effectively started by the addition of FRET substrate (50 nM) and the combination is incubated for one hour. The FRET assay is terminated with by addition of Tris buffer, which raises the pH to neutrality, and the fluorescence is determined. The FRET substrate is a peptide with commercially available fluorophore and quencher, on opposite sides of the BACE cleavage site.

Cathepsin D (Cat D) = Cathepsin D (Cat D) (Homo sapiens (Human), UniProt P07339); experiment: In vitro enzymatic Cathepsin D (Cat D) FRET assay; assay type: biochemical; conditions: read-out: CatD IC50
Cathepsin D (Cat D), sequence (P07339 65-412, species assumed): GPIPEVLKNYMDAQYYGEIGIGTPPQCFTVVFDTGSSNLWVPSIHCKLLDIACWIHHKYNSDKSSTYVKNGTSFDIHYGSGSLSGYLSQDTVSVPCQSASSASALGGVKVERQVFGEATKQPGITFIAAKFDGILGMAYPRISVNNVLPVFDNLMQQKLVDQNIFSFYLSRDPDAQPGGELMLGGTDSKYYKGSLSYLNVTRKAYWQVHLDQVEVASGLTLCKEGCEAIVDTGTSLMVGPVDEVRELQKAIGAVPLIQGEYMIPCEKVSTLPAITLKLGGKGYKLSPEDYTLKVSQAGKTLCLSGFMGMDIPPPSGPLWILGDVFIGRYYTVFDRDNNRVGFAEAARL
Summary of the method: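 CHO-expressed recombinant Cat D cleaves a fluorophore/quencher FRET peptide (20 nM) in 0.05 M citrate pH 3.5, 5 mM CHAPS, 10% DMSO final, over 1 h. Tris addition neutralizes pH to stop the reaction; fluorescence read at excitation 500 nm, emission 580 nm.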

[2] = tested on: Aβ40 in conditioned medium of cells stably expressing Amyloid Precursor Protein (APP); experiment: In vitro BACE cell-based assay (Aβ40 sandwich ELISA); conditions: Homo sapiens, read-out: HEK cell assay IC50
Summary of the method: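 Aβ40 in supernatants was measured by time-resolved fluorescence sandwich ELISA using pAb40 capture and biotinylated 6E10 detection, with antibody incubations at 4 °C. Stable APP cells were exposed to compounds for 24 h in a 10-point series (top dose 100 or 10 µM, 0.1% DMSO). IC50 was fitted from the concentration-response.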

[3] = HEK293, average IC50, HEK cells

Beta Secretase enzyme (BACE), sequence (P56817 46-501): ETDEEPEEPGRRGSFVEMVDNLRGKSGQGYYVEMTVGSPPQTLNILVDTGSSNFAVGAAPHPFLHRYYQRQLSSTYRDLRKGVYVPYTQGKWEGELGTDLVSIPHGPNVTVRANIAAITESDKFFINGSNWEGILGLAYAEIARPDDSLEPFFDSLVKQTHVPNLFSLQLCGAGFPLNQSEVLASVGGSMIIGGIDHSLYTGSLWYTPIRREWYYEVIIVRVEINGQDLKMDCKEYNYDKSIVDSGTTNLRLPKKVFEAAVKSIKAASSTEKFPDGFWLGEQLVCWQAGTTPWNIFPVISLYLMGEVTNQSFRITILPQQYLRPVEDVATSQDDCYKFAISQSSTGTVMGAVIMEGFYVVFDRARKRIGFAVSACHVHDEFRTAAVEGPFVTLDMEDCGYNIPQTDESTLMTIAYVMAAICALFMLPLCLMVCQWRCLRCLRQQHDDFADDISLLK

| IC50 ([1]; average IC50) | IC50 (Cathepsin D (Cat D); average IC50) | IC50 [2, 3] | IC50 ([1]; average IC50, BACE enzyme assay) | IC50 (Cathepsin D (Cat D); average IC50, cathepsin D enzyme assay) | IC50 ([2]; HEK293, average IC50, HEK cell assay) | SMILES |
| --- | --- | --- | --- | --- | --- | --- |
| 1760 nM | > 400000 nM | 909 nM | – | – | – | Cc1cc(Cl)cnc1C(=S)Nc1ccc(F)c([C@]2(CF)C[C@@H](C(F)(F)F)OC(N)=N2)c1 [Example 90, N-(3-((4S,6S)-2-amino-4-(fluoromethyl)-6-(trifluoromethyl)-5,6-dihydro-4H-1,3-oxazin-4-yl)-4-fluorophenyl)-5-chloro-3-methylpyridine-2-carbothioamide] |
| 1640 nM | > 400000 nM | 1650 nM | – | – | – | NC1=N[C@](CF)(c2cc(Oc3cnccn3)ccc2F)C[C@@H](C(F)(F)F)O1 [Example 92, (4S,6S)-4-(2-fluoro-5-(pyrazin-2-yloxy)phenyl)-4-(fluoromethyl)-6-(trifluoromethyl)-5,6-dihydro-4H-1,3-oxazin-2-amine] |
| 2890 nM | > 400000 nM | 2590 nM | – | – | – | NC1=N[C@](CF)(c2cc(Oc3ncc(Cl)cc3F)ccc2F)C[C@@H](C(F)(F)F)O1 [Example 95, (4S,6S)-4-(5-((5-chloro-3-fluoropyridin-2-yl)oxy)-2-fluorophenyl)-4-(fluoromethyl)-6-(trifluoromethyl)-5,6-dihydro-4H-1,3-oxazin-2-amine] |

Further lines, the molecule ahead of its results:

| SMILES | IC50 ([1]; average IC50) | IC50 (Cathepsin D (Cat D); average IC50) | IC50 [2, 3] | IC50 ([1]; average IC50, BACE enzyme assay) | IC50 (Cathepsin D (Cat D); average IC50, cathepsin D enzyme assay) | IC50 ([2]; HEK293, average IC50, HEK cell assay) |
| --- | --- | --- | --- | --- | --- | --- |
| C[C@@]1(c2cc(Nc3ncnc4cc(C#N)cnc34)cnc2F)C[C@@H](C(F)(F)F)OC(N)=N1 [Example 75, 4-((5-((4S,6S)-2-amino-4-methyl-6-(trifluoromethyl)-5,6-dihydro-4H-1,3-oxazin-4-yl)-6-fluoropyridin-3-yl)amino)pyrido[3,2-d]pyrimidine-7-carbonitrile] | 368 nM | > 400000 nM | 91.2 nM | – | – | – |
| C[C@@]1(c2cc(Nc3nccc4cc(Cl)cnc34)cnc2F)C[C@@H](C(F)(F)F)OC(N)=N1 [Example 76, (4S,6S)-4-(5-((3-chloro-1,7-naphthyridin-8-yl)amino)-2-fluoropyridin-3-yl)-4-methyl-6-(trifluoromethyl)-5,6-dihydro-4H-1,3-oxazin-2-amine] | 32.9 nM | > 400000 nM | 42 nM | – | – | – |
| C[C@@]1(c2cc(Nc3nccc4cc(C#N)cnc34)cnc2F)C[C@@H](C(F)(F)F)OC(N)=N1 [Example 77, 8-((5-((4S,6S)-2-amino-4-methyl-6-(trifluoromethyl)-5,6-dihydro-4H-1,3-oxazin-4-yl)-6-fluoropyridin-3-yl)amino)-1,7-naphthyridine-3-carbonitrile] | 95.6 nM | > 400000 nM | 24.8 nM | – | – | – |
| C[C@@]1(c2nc(NC(=O)c3ccc(Cl)cn3)ccc2F)C[C@@H](C(F)(F)F)OC(N)=N1 [Example 83, N-(6-((4S,6S)-2-amino-4-methyl-6-(trifluoromethyl)-5,6-dihydro-4H-1,3-oxazin-4-yl)-5-fluoropyridin-2-yl)-5-chloropicolinamide] | 103 nM | > 400000 nM | 38.9 nM | – | – | – |
| Cc1cc(OC(F)F)cnc1C(=O)Nc1ccc(F)c([C@]2(C)C[C@@H](C(F)(F)F)OC(N)=N2)n1 [Example 85, N-(6-((4S,6S)-2-amino-4-methyl-6-(trifluoromethyl)-5,6-dihydro-4H-1,3-oxazin-4-yl)-5-fluoropyridin-2-yl)-5-(difluoromethoxy)-3-methylpicolinamide] | 103 nM | 492000 nM | 29.5 nM | – | – | – |
| C#CCOc1cnc(C(=O)Nc2ccc(F)c([C@]3(C)C[C@@H](C(F)(F)F)OC(N)=N3)n2)cn1 [Example 87, N-(6-((4S,6S)-2-amino-4-methyl-6-(trifluoromethyl)-5,6-dihydro-4H-1,3-oxazin-4-yl)-5-fluoropyridin-2-yl)-5-(prop-2-yn-1-yloxy)pyrazine-2-carboxamide] | 25.4 nM | 609000 nM | 8.4 nM | – | – | – |
| C[C@@]1(c2nc(NC(=O)c3nn(C(F)F)cc3Cl)ccc2F)C[C@@H](C(F)(F)F)OC(N)=N1 [Example 88, N-(6-((4S,6S)-2-amino-4-methyl-6-(trifluoromethyl)-5,6-dihydro-4H-1,3-oxazin-4-yl)-5-fluoropyridin-2-yl)-4-chloro-1-(difluoromethyl)-1H-pyrazole-3-carboxamide] | – | – | – | 32 nM | 712000 nM | 10 nM |
